Results as given in patent USRE48461E1, “Modulation of androgen receptor expression” (Ionis Pharmaceuticals, Inc., priority 2012, dated 2021).

Tests used:
Format in all cases: cell-based, human
[1] = system: AR V7 variant mRNA; assay: AR V7 variant RNA in VCaP cells; details: RNAiMax, 48 hrs
Procedure: Cells were plated at 10,000 cells per well. […] ISIS 549148 was included as a negative control. After an incubation period of 48 hrs, RNA levels of full length AR, the V7 variant, PSA and TMPRSS2 were measured.
A separate set of cells was treated with MDV-3100 at 0.04 μM, 0.2 μM, 1.0 μM, or 5.0 μM. After an incubation period of 48 hrs, RNA levels of full length AR, the V7 variant, PSA and TMPRSS2 were measured. The data is presented in Tables 108 expressed as percent expression of gene levels compared to the untreated control.
Cells were plated at 15,000 cells per well and cultured in CSS media for 16 hours. […] ISIS 549148 was included as a negative control. After 4 hrs, 1 nM DHT was added. […] After an incubation period of 48 hrs, RNA levels of AR, PSA and TMPRSS2 were measured. […]

[2] = system: TMPRSS2 mRNA; assay: TMPRSS2 expression in VCaP cells; details: RNAiMax, 48 hrs
Procedure: Cells were plated at 10,000 cells per well. […] After an incubation period of 48 hrs, RNA levels of full length AR, the V7 variant, PSA and TMPRSS2 were measured.
After an incubation period of 48 hrs, RNA levels of full length AR, the V7 variant, PSA and TMPRSS2 were measured. The data is presented in Tables 108 expressed as percent expression of gene levels compared to the untreated control.
Cells were plated at 15,000 cells per well and cultured in CSS media for 16 hours. […] After 4 hrs, 1 nM DHT was added. […] After an incubation period of 48 hrs, RNA levels of AR, PSA and TMPRSS2 were measured.

[3] = system: PSA mRNA; assay: PSA expression in C4-2 cells; details: 48 hrs; for Percent inhibition of PSA expression: C4-2 cells, CSS + DHT medium
Procedure: Cells were plated at 1,000 cells per well. […] After an incubation period of 48 hrs, RNA levels of AR, PSA and TMPRSS2 were measured.
Cells were plated at 2,000 cells per well and cultured in CSS media with 1 nM DHT. […] After an incubation period of 48 hrs, RNA levels of AR, PSA and TMPRSS2 were measured.

[4] = system: AR V7 variant mRNA; assay: AR V7 variant RNA in 22RV1 cells; details: RNAiMax, 48 hrs
[5] = system: full length AR mRNA; assay: Full-length AR RNA in 22RV1 cells (complete, CSS+DHT medium); details: RNAiMax, 48 hrs
Procedure: (§1) Cells were plated at 1,000 cells per well. […] After an incubation period of 48 hrs, RNA levels of full length AR, the V7 variant, PSA and TMPRSS2 were measured.
(§2) After an incubation period of 48 hrs, RNA levels of full length AR, the V7 variant, PSA and TMPRSS2 were measured.
(§3) Cells were plated at 2,000 cells per well and cultured in CSS media for 16 hours. […] After 4 hrs, 1 nM DHT was added. […] After an incubation period of 48 hrs, RNA levels of AR, AR V7 variant, PSA and TMPRSS2 were measured.

[6] = system: LMR20 cells; assay: Proliferation of MDV3100-resistant LMR20 cells (MTT; with R1881 or DHT); details: 5 days
Procedure: LMR20 cells were plated at 1,500 cells per well in phenol red-free medium with charcoal-stripped fetal bovine serum (CSS), to remove any androgens from the medium (Life Technologies). […] The synthetic androgen agonist, R1881, (Takeda, A. N. et al., Mol. Pharmacol. 2007. 71: 473-82) was added on day 1 at 1 nM dose to a set of cells also treated with each of the antisense oligonucleotides. DHT was added on day 1 at a dose of 10 nM to another set of cells also treated with each of the antisense oligonucleotides. […] After a treatment period of 5 days, the proliferative ability of the cancer cells was measured by the standard MTT assay. Results are presented in Table 42 as percent inhibition of proliferation, relative to non-treated cells.

[7] = system: TMPRSS2 mRNA; assay: TMPRSS2 expression in 22RV1 cells; details: RNAiMax, 48 hrs
Procedure: as §1, §2, §3

[8] = system: cleaved PARP; assay: Cleaved PARP western blot in VCaP cells

TTGATTTAATGGTTGC [ISIS 560131] (MOE and (S)-cEt gapmer chemistry, further chemistry not given here) [targets intron 1]
Percent inhibition of AR V7 variant ([1]; CSS + DHT medium, 1.34 nM): 27% | Percent inhibition of AR V7 variant ([1]; CSS + DHT medium, 4.0 nM): 31% | Percent inhibition of AR V7 variant ([1]; CSS + DHT medium, 13.4 nM): 39% | Percent inhibition of AR V7 variant ([1]; CSS + DHT medium, 40 nM): 41% | Percent inhibition of AR V7 variant ([1]; complete medium, 1.34 nM): 0% | Percent inhibition of AR V7 variant ([1]; complete medium, 4.0 nM): 57% | Percent inhibition of AR V7 variant ([1]; complete medium, 13.4 nM): 78% | Percent inhibition of AR V7 variant ([1]; complete medium, 40 nM): 84% | Percent inhibition of TMPRSS2 expression ([2]; CSS + DHT medium, 1.34 nM): 0% | Percent inhibition of TMPRSS2 expression ([2]; CSS + DHT medium, 4.0 nM): 21% | Percent inhibition of TMPRSS2 expression ([2]; CSS + DHT medium, 13.4 nM): 49% | Percent inhibition of TMPRSS2 expression ([2]; CSS + DHT medium, 40 nM): 57% | Percent inhibition of TMPRSS2 expression ([2]; complete medium, 1.34 nM): 0% | Percent inhibition of TMPRSS2 expression ([2]; complete medium, 4.0 nM): 0% | Percent inhibition of TMPRSS2 expression ([2]; complete medium, 13.4 nM): 0% | Percent inhibition of TMPRSS2 expression ([2]; complete medium, 40 nM): 4% | Percent inhibition of PSA expression ([3]; 0.04 μM): 10% | Percent inhibition of PSA expression ([3]; 0.2 μM): 24% | Percent inhibition of PSA expression ([3]; 1 μM): 49% | Percent inhibition of PSA expression ([3]; 5.0 μM): 74% | Percent inhibition of PSA expression in C4-2 cells cultured in complete medium ([3]; 0.04 μM): 48% | Percent inhibition of PSA expression in C4-2 cells cultured in complete medium ([3]; 0.2 μM): 78% | Percent inhibition of PSA expression in C4-2 cells cultured in complete medium ([3]; 1 μM): 88% | Percent inhibition of PSA expression in C4-2 cells cultured in complete medium ([3]; 5.0 μM): 89% | Percent inhibition of AR V7 variant ([4]; CSS + DHT medium, 1.34 nM): 63% | Percent inhibition of AR V7 variant ([4]; CSS + DHT medium, 4.0 nM): 83% | Percent inhibition of AR V7 variant ([4]; CSS + DHT medium, 13.4 nM): 93% | Percent inhibition of AR V7 variant ([4]; complete medium, 1.34 nM): 12% | Percent inhibition of AR V7 variant ([4]; complete medium, 4.0 nM): 29% | Percent inhibition of AR V7 variant ([4]; complete medium, 13.4 nM): 57% | Percent inhibition of AR V7 variant ([4]; complete medium, 40 nM): 81% | Percent inhibition of full-length AR ([5]; CSS + DHT medium, 1.34 nM): 65% | Percent inhibition of full-length AR ([5]; CSS + DHT medium, 4.0 nM): 85% | Percent inhibition of full-length AR ([5]; CSS + DHT medium, 13.4 nM): 93% | Percent inhibition of full-length AR ([5]; complete medium, 1.34 nM): 7% | Percent inhibition of full-length AR ([5]; complete medium, 4.0 nM): 19% | Percent inhibition of full-length AR ([5]; complete medium, 13.4 nM): 49% | Percent inhibition of full-length AR ([5]; complete medium, 40 nM): 76% | Percent inhibition of LMR20 cell proliferation ([6]; CSS + DHT, ASO 0.04 μM): 0% | Percent inhibition of LMR20 cell proliferation ([6]; CSS + DHT, ASO 0.20 μM): 13% | Percent inhibition of LMR20 cell proliferation ([6]; CSS + DHT, ASO 1.0 μM): 57% | Percent inhibition of LMR20 cell proliferation ([6]; CSS + DHT, ASO 5.0 μM): 71% | Percent inhibition of LMR20 cell proliferation ([6]; CSS + R1881, ASO 0.04 μM): 0% | Percent inhibition of LMR20 cell proliferation ([6]; CSS + R1881, ASO 0.20 μM): 13% | Percent inhibition of LMR20 cell proliferation ([6]; CSS + R1881, ASO 1.0 μM): 55% | Percent inhibition of LMR20 cell proliferation ([6]; CSS + R1881, ASO 5.0 μM): 70% | Percent inhibition of LMR20 cell proliferation ([6]; CSS, ASO 0.04 μM): 0% | Percent inhibition of LMR20 cell proliferation ([6]; CSS, ASO 0.20 μM): 0% | Percent inhibition of LMR20 cell proliferation ([6]; CSS, ASO 1.0 μM): 9% | Percent inhibition of LMR20 cell proliferation ([6]; CSS, ASO 5.0 μM): 16% | LMR20 cell proliferation ([6]; in the presence of R1881 or DHT, 0.04-5.0 μM): significantly inhibited MDV3100-resistant prostate cancer cell proliferation in a dose dependent manner more extensively than ISIS 554221 | Percent inhibition of TMPRSS2 expression ([7]; CSS + DHT medium, 1.34 nM): 39% | Percent inhibition of TMPRSS2 expression ([7]; CSS + DHT medium, 4.0 nM): 50% | Percent inhibition of TMPRSS2 expression ([7]; CSS + DHT medium, 13.4 nM): 59% | Percent inhibition of TMPRSS2 expression ([7]; complete medium, 1.34 nM): 7% | Percent inhibition of TMPRSS2 expression ([7]; complete medium, 4.0 nM): 3% | Percent inhibition of TMPRSS2 expression ([7]; complete medium, 13.4 nM): 19% | Percent inhibition of TMPRSS2 expression ([7]; complete medium, 40 nM): 32% | cleaved PARP levels (western blot) [8]: increased in a dose-dependent manner
